Columns and labels:
[1] = tested on: LTB4-mediated neutrophil chemotaxis; test: Inhibition of neutrophil (PMN) chemotaxis toward LTB4, Boyden chamber; type: cell-based, human
Procedure: Three test samples, identical to powder samples 1, 2 and 3 in Example 1, were assayed for their ability to inhibit neutrophil chemotaxis toward Leukotriene B4. The assay is designed to assess the ability of a material to inhibit the migration of polymorphonuclear leukocytes (PMN) toward a known chemotactic agent, LTB4. […] The PMN rich fraction was removed and red blood cells (RBC) were lysed with hypotonic saline. The PMN were washed twice with Hank's Balanced Salt Solution (HBSS) and then resuspended in 5.0 ml HBSS with ions supplemented with 0.4% bovine serum albumin (Sigma). The concentration of cells was adjusted to 10×106 PMN/ml. Collected PMNs were greater than 95% pure and 98% viable as assessed by the trypan blue exclusion assay. The assay was performed using the Boyden chamber apparatus with blind well chambers fitted with 5 μm pore size filters (Millipore). The apparatus consists of two vertical chambers separated by a filter that contains pores of a size chosen such that the holes are large enough for the cells to actively crawl through them but not so large that the cells can physically fall through into the lower chamber. […] The chemoattractant used in the present experiment was 0.125 nM LTB4. Following incubation at 37° C. for 90 min., under a humidified atmosphere with 5% CO2, the filters were fixed with propanol and stained with haematoxylin and eosin. The PMN chemotactic response was determined by the distance to the leading front and the number of cells that migrated to the front. The distance to the leading front was determined at 400× magnification by the distance the majority of the cells migrated through the filter. The results were expressed as the average number of cells per high powered field at the leading (migratory) front (PMN/HPF). In this assay, 0.5% caffeine was used as a positive control. A negative control, with no anti-chemotactic agent, was also used. The results, shown in Table 4, are the percent reduction in chemotactic activity compared to the negative control.

[2] = tested on: IL-1β mediated adhesion of neutrophils; test: Inhibition of IL-1β mediated adhesion of neutrophils (PMN) to human dermal microvascular endothelial cells; type: cell-based
Procedure: Three samples identical to those in example 4 were tested for their ability to inhibit endothelial adhesion of neutrophils by interfering with the effects of IL-1β. These samples were tested at final concentrations of 0.1% and 1% (w/v). Neutrophil adhesion was inhibited dose dependently with all samples tested. Adhesion of PMN to human dermal microvascular cells is a required step in the recruitment of leukocytes into the site of infection or irritation and was modeled for this assay in the following manner. […] The PMN rich fraction was removed and RBC were lysed with hypotonic saline. The PMN were washed twice with Hank's balanced salt solution (HBSS) and then resuspended in 5.0 ml HBSS with ions supplemented with 0.4% bovine serum albumin (Sigma). The concentration of cells was adjusted to 10×106 PMN/ml. Collected PMNs were greater than 95% pure and 98% viable as assessed by the trypan blue exclusion assay. […] In preliminary experiments the optimum concentrations of stimulatory agents (IL-1β, 10 U/ml and TPA, 5 ng/ml) were determined. […] After 30-45 min, the wells were read in an ELISA reader (Bio-Tek Instruments Inc, Winooslei, Vt., USA) at 570 nm. The level of adherence was given as the mean optical density (OD) reading at an OD570 for wells containing endothelial cells plus PMN minus the mean OD570 of wells containing endothelial cells alone.

Cn1c(=O)c2c(ncn2C)n(C)c1=O [caffeine]
Percent reduction in chemotactic activity compared to the negative control ([1]; Example 2, 0.5% (w/v), 0.125 nM LTB4): 96% | Percent reduction in chemotactic activity compared to negative control ([1]; Example 4, 0.1% (w/v), 0.125 nM LTB4): 93% | Percent reduction in chemotactic activity compared to negative control ([1]; Example 6, concentration 0.5%): 94% | Percent reduction in chemotactic activity compared to negative control ([1]; Example 7, positive control at 0.5% concentration): 97% | Percent reduction in adhesion activity compared to negative control ([2]; Example 5, 1.0% (w/v), IL-1β 10 U/ml): 64% | Percent reduction in adhesion activity compared to negative control ([2]; Example 8, positive control at 1.0% concentration): 47%

Source: patent US7575764B2, “Compositions comprising hypsizygus ulmarius extract” (ELC Management LLC, priority 2005, dated 2009)
